Data from US6034064A, “Peptides and therapeutic agent for autoimmune diseases containing the same” (Hoechst Pharmaceuticals & Chemicals K.K., priority 1995, dated 2000).
No end group written: not given here.

Columns and labels:
[1] = system: anti-KLH antibody production; assay: Suppressive effect on anti-KLH antibody production in mice (ELISA of serum IgG); format: in vivo, mouse (Balb/c); settings: Example 7
Experimental: Day 5 and day 3 prior to the antigen administration, 100 μg of each Peptide (I) to (VI) of the present invention composed of 9 amino acid residues indicated by Sequence ID No. 1 in the Sequence Listing were dissolved in 200 μl of physiological saline. The resulting solution was subcutaneously administered to 9-week-old Balb/c mice. As a control, a non-administered group to which the same amount of physiological saline was administered was employed. In 200 μl of physiological saline, 25 μg of KLH were dissolved as an antigen and the resulting solution was subcutaneously administered. The blood was collected on day 21 after antigen administration and an antibody titer was measured by the method which is described below.
KLH was diluted to 10 μg/ml with a phosphate buffered physiological saline (PBS). Fifty μl portions of the resulting solution were poured into a 96-well microplate and the plate was allowed to stand at 4iC overnight. After the microplate was washed three times with 0.05% Tween®-20-containing PBS (T-PBS), 200 μl portions of 0.5% casein tris-buffered physiological saline (casein TBS) were poured into wells, respectively. […] The microplate was washed three times with T-PBS and 50 μl portions of the mouse serum diluted to 1/200 with casein TBS were poured into the wells, followed by reaction for one hour (primary reaction).
The resulting microplate was washed three times with T-PBS, to which 50 μl portions of an anti-mouse IgG-peroxidase-labeled antibody (TAGO Co.) diluted to 1/4000 with casein TBS were poured. The reaction was effected at room temperature for one hour (secondary reaction). After the completion of the secondary reaction, the plate was washed three times again. Fifty μl portions of a substrate liquid/chromogen (chromogen substrate: Behringwerke AG) were poured into wells, respectively, followed by reaction at room temperature for 30 minutes. After the completion of the reaction, 0.5N diluted sulfuric acid was added to terminate the reaction and an absorbance at 450 nm was measured by a calorimeter ("BEP-II ", product of Behringwerke AG/Germany) with the absorbance at 650 nm as a control.
In a similar manner to Example 3, suppressive effects of Peptides (I), (VII) to (XV) on anti-KLH antibody production in mice were studied.

[2] = system: anti-OVA antibody production; assay: Suppressive effect on anti-OVA antibody production in mice (ELISA of serum IgG); format: in vivo, mouse (Balb/c); design: Anti OVA Ig-G antibody titer: dose or concentration left out as unconfirmed; settings: for anti-OVA antibody production compared with Peptide (I) administered group / anti-OVA antibody production compared with the non-administered group and Peptide (I) administered group: Example 8
Experimental: Day 5 and day 3 prior to the antigen administration, Peptide (I) composed of 9 amino acid residues as indicated by Sequence ID No. 1 in the Sequence Listing of the present invention and a synthetic peptide 15 composed of 15 amino acid residues derived from clone 17.2 TcR, which peptide had been reported by Mohapatra et al. as described above, 100 g each, were dissolved in 200 of physiological saline and each solution thus obtained was subcutaneously administered to 9-week-old Balb/c mice. As a control, a non-administered group to which the same amount of physiological saline was administered was employed. In 200 l of physiological saline, 100 g of OVA (Sigma Chemical Co.) were dissolved, followed by subcutaneous administration. Blood was collected on day 21 after antigen administration and an antibody titer was measured by the method described below.
OVA was diluted to 10 µg/ml with phosphate buffered saline (PBS) and 50 l portions of the solution were poured in a 96-well microplate. The coating operation was conducted overnight at […]. The microplate was then washed three times with a 0.05% Tween®-20-containing PBS (T-PBS). 200 l portions of 0.5% casein-containing tris buffered physiological saline (casein TBS) were poured in each well and the microplate was allowed to stand at room temperature for one hour. The microplate was then washed three times with T-PBS. After the serum of the blood collected from the mice was diluted to 1/200 with 0.5% casein TBS, 50 l portions of the diluted serum were poured in each well and the plate was allowed to stand for one hour (primary reaction).
After the completion of the primary reaction, the microplate was washed three times with T-PBS. Fifty l portions of anti-mouse IgG-peroxidase-labeled antibody (TAGO Co.) diluted to 1/4000 with 0.5% casein TBS were poured in each well, followed by reaction at room temperature for one hour (secondary reaction). After the completion of the secondary reaction, the plate was washed three times again. Fifty l portions of a substrate liquid/chromogen (chromogen substrate: Behringwerke AG) were poured in each well, followed by reaction at room temperature for 30 minutes. After the completion of the reaction, 0.5N diluted sulfuric acid was added to terminate the reaction and an absorbance at 450 nm was measured by a calorimeter ("BEP-II", product of Behringwerke AG/Germany) with an absorbance at 650 nm as a control.
In a similar manner to Example 2, the suppressive effects of Peptides (I), (VII) to (XIV) on the anti-OVA antibody production in mice were measured.

[3] = system: EAE model mice; assay: Onset suppressive effect on EAE model mice; format: in vivo, mouse (SJL)
Experimental: As an antigen, guinea pig spinal chord homogenate was employed. The guinea pig spinal chord homogenate was diluted with PBS to be 6.6 mg/ml, followed by the addition of the equivalent amount of Freunds complete adjuvant. The resulting mixture was formed into an emulsion by an ultrasonic sonicator. The resulting emulsion was administered to two areas under the lateral skin in a total amount of 300 μl. Day 5 and day 3 prior to antigen administration, and 5 days a week for 4 weeks after antigen administration, the solution of Peptide (I) dissolved in 100 μl physiological saline was subcutaneously administered to a 14-week old SJL mouse. Incidentally, in order to increase an onset ratio, […] of pertussis toxin (PTX) were intravenously administered as an enhancer on the day of antigen administration and two days after antigen administration. Observation of the onset was performed from day 14 to day 28 after primary antigen administration. The onset was scored based on the following standard criteria [Pettinelli, C. B., Fritz, D. E., and McFarlin, D. E. J. Immunl., 129, No. 3, 1024-1028 (1982)]. In Table 3, values of average score+standard deviation (SD) in each administration group on day 22, day 25 and day 28 after primary antigen administration are shown.
Score 1: Slight paralysis of hind leg with tail weakness
Score 2: Moderate paralysis of hind leg with tail weakness
Score 3: Total paralysis of hind leg
Score 4: Slight paralysis of forward leg with total paralysis of hind leg
Score 5: Total paralysis of all leg
Score 6: Death from paralysis

AALTFGKG [Peptide (VIII), Ala-Ala-Leu-Thr-Phe-Gly-Lys-Gly]
anti-KLH antibody production compared with Peptide (I) administered group [1]: not suppressed

AKATFGKG [Peptide (XIII), Ala-Lys-Ala-Thr-Phe-Gly-Lys-Gly]
anti-OVA antibody production compared with Peptide (I) administered group [2]: not suppressed | anti-KLH antibody production compared with Peptide (I) administered group [1]: not suppressed

AKLAFGKG [Peptide (IX), Ala-Lys-Leu-Ala-Phe-Gly-Lys-Gly]
anti-OVA antibody production compared with the non-administered group and Peptide (I) administered group [2]: significantly suppressed | anti-KLH antibody production compared with the non-administered group and Peptide (I) administered group [1]: significantly suppressed

AKLTAGKG [Peptide (XIV), Ala-Lys-Leu-Thr-Ala-Gly-Lys-Gly]
anti-OVA antibody production compared with Peptide (I) administered group [2]: not suppressed | anti-KLH antibody production compared with Peptide (I) administered group [1]: not suppressed

AKLTFAKG [Peptide (X), Ala-Lys-Leu-Thr-Phe-Ala-Lys-Gly]
anti-KLH antibody production compared with the non-administered group and Peptide (I) administered group [1]: significantly suppressed

AKLTFGAG [Peptide (XI), Ala-Lys-Leu-Thr-Phe-Gly-Ala-Gly]
anti-OVA antibody production compared with the non-administered group and Peptide (I) administered group [2]: significantly suppressed | anti-KLH antibody production compared with the non-administered group and Peptide (I) administered group [1]: significantly suppressed

AKLTFGKA [Peptide (XII), Ala-Lys-Leu-Thr-Phe-Gly-Lys-Ala]
anti-KLH antibody production compared with Peptide (I) administered group [1]: not suppressed

AKLTFGKG [Peptide (VII), Ala-Lys-Leu-Thr-Phe-Gly-Lys-Gly]
anti-OVA antibody production compared with the non-administered group and Peptide (I) administered group [2]: significantly suppressed | anti-KLH antibody production compared with the non-administered group and Peptide (I) administered group [1]: significantly suppressed

AKLTFGKGT [Peptide (I), Ala-Lys-Leu-Thr-Phe-Gly-Lys-Gly-Thr]
Anti OVA Ig-G antibody titer ([2]; Example 2, Table 1, peptide s.c. day 5 and day 3 prior to OVA, blood day 21, 8 mice per group): 8.8 ± 10.8 unit | anti-OVA antibody production compared with the non-administered group ([2]; Example 2, 8 mice per group): significantly suppressed | EAE average score ± SD ([3]; 1 μg/body s.c., Day 22): 1.6 ± 1.8 score | EAE average score ± SD ([3]; 1 μg/body s.c., Day 25): 0.9 ± 1.1 score | EAE average score ± SD ([3]; 1 μg/body s.c., Day 28): 1.8 ± 1.9 score | EAE average score ± SD ([3]; 5 μg/body s.c., Day 22): 0.4 ± 0.7 score | EAE average score ± SD ([3]; 5 μg/body s.c., Day 25): 1.0 ± 1.1 score | EAE average score ± SD ([3]; 5 μg/body s.c., Day 28): 0.7 ± 0.8 score | onset of EAE compared with physiological saline group ([3]; 5 μg/body, day 25 and day 28, significant difference of 5%): suppressed | EAE average score ± SD ([3]; 25 μg/body s.c., Day 22 after primary antigen administration): 0.3 ± 0.4 score | EAE average score ± SD ([3]; 25 μg/body s.c., Day 25): 0.1 ± 0.3 score | EAE average score ± SD ([3]; 25 μg/body s.c., Day 28): 0.0 ± 0.0 score | onset of EAE compared with physiological saline group ([3]; 25 μg/body, from day 22 significant difference of 5%, from day 25 of 1%): suppressed | onset of EAE ([3]; administration of Peptide (I), overall): suppressed

KLTFGKG [Peptide (XV), Lys-Leu-Thr-Phe-Gly-Lys-Gly]
anti-KLH antibody production compared with Peptide (I) administered group [1]: not suppressed
